“Also recorded” adds a separate entry of the source.
Experiments:
[1] = One week (7-day) stability testing, HPLC purity and XRPD form; conditions: for Loss in purity, one week stability: open vial
Method: After one week the solids were analyzed by XRPD for physical stability and HPLC for purity.
Seven day stability testing was carried out for Form III at 40° C./75% RH and ambient in open vials. 80° C. was carried out in an open 2 mL vial within a closed 20 mL vial.
The crystalline Bis-Sodium Pattern 3 material underwent 7-day stability tests at 40° C./75% RH (open vial); at ambient temperature, light and humidity (open vial) and 80° C. (sealed vial), with post-stability storage XRPD and HPLC analysis. The solubility of the bis-sodium pattern 3 salt was assessed.

[2] = Primary salt screen: XRPD re-analysis after drying at 40° C. and after storage at 40° C./75% RH; type: physicochemical; conditions: for Remained pattern after 40° C.: dried at 40° C. for ca. two days; for Remained pattern after 40° C./78% RH: stored for ca. 24 h
Method: Salt crystallization screening was carried out as follows. Ca. […] The experiments were temperature cycled between ambient and 40° C. in 4 hour cycles for ca. 72 h. […] The solids were then isolated via centrifuge filter and analyzed by XRPD. Selected salts were dried at 40° ° C. for ca. two days and re-analyzed by XRPD. The salts were also characterized by TG/DSC and ^1H NMR.

[3] = Thermodynamic solubility studies in pH buffers; conditions: shaken at ambient ca. 24 h
Method: Ca. 6 mg of the salt was weighed into a 2 mL vial and 50 μL aliquots of pH 7.4 PBS was added until dissolution was obtained. […] The preparations were analyzed by XRPD, PLM, TG/DSC, DSC, DVS, FTIR, ^1H and ^31P NMR and HPLC purity. One week stability testing was carried out, salt disproportionation and hydration studies and thermodynamic solubility.
Salt disproportionation and hydration studies were carried out as follows: Ca. 30 mg of each salt was suspended in 400 μL of the solvent systems shown in and shaken at ambient for ca. 24 h. Thermodynamic solubility studies were carried out as follows: Ca. 30 mg of each salt was suspended in 400 μL of the solvent systems shown in and shaken at ambient for ca. 24 h.

[4] = Salt disproportionation and hydration studies; type: physicochemical; conditions: ambient, ca. 24 h; for Hydration studies, outcome: 3 water activities; for Disproportionation experiment, outcome: water
[5] = Dynamic vapour sorption (DVS); type: physicochemical
Method: Dynamic Vapour Sorption (DVS). Approximately 10-20 mg of sample was placed into a mesh vapour sorption balance pan and loaded into a DVS Advantage dynamic vapour sorption balance by Surface Measurement Systems. The sample was subjected to a ramping profile from 40-90% relative humidity (RH) at 10% increments, maintaining the sample at each step until a stable weight had been achieved (dm/dt 0.004%, minimum step length 30 minutes, maximum step length 500 minutes) at 25° C. After completion of the sorption cycle, the sample was dried using the same procedure to 0% RH and then a second sorption cycle back to 40% RH. Two cycles were performed. The weight change during the sorption/desorption cycles were plotted, allowing for the hygroscopic nature of the sample to be determined. XRPD analysis was then carried out on any solid retained.

[6] = listed as N-(hydroxyethyl)pyrrolidine Pattern 2
[7] = 80° C., listed as N-(hydroxyethyl)pyrrolidine Pattern 2

Q: Which “XRPD form after one week stability” value ([1]; 80° C.) does the source give for CC(=O)C1CCC2C3CCC4=CC(=NOCOP(=O)(O)O)CCC4(C)C3CCC12C.NC(CO)(CO)CO (stereo not shown) [Form III] here?
A: Its value is “Form IV”.

Q: Which results are given for [K+] [Potassium]?
A: Remained pattern after 40° C. [2]: Yes; Remained pattern after 40° C./78% RH [2]: No - Pattern 5; Remained pattern after 40° C./78% RH ([2]; listed as potassium Pattern 1): Pattern 5

Q: Which “Remained pattern after 40° C.” value [2] does the source give for NCCO [Ethanolamine] here?
A: Its value is “Yes”.

Q: What does the source list for CCNC[C@H](O)[C@@H](O)[C@H](O)[C@H](O)CO [N-ethyl glucamine]?
A: Remained pattern after 40° C. [2]: Yes; Remained pattern after 40° C./78% RH [2]: No. Mixture

Q: For CC(=O)[C@H]1CC[C@H]2[C@@H]3CCC4=CC(=NOCOP(=O)([O-])[O-])CC[C@]4(C)[C@H]3CC[C@]12C.[Na+].[Na+] [Sodium Pattern 3], which Solubility ([3]; pH 7.4) is on record?
A: Its Solubility is under 12 mg/mL at pH 7.4.

Q: What about the “Decrease in purity, one week stability” value ([1]; 80° C.) of the same compound?
A: The value was “Large drop in purity at 80 °C”.

Q: And the “XRPD form after one week stability” value ([1]; 80° C.)?
A: The value was 40° C./75% RH, Pattern 5.

Q: What about the “Decrease in purity, one week stability” value ([1]; 80° C., listed as sodium salt Pattern 3) of the same compound?
A: Its value is “large drop in purity”.

Q: And the “XRPD form after one week stability” value ([1]; all conditions tested)?
A: The value was “form conversion”.

Q: Which results are given for CC(=O)[C@H]1CC[C@H]2[C@@H]3CCC4=CC(=NOCOP(=O)(O)O)CC[C@]4(C)[C@H]3CC[C@]12C.OCCN1CCCC1.OCCN1CCCC1 [Form V]?
A: Remained pattern after 40° C. [2]: Yes; Remained pattern after 40° C./78% RH [2]: Yes; Hydration studies, outcome [4]: Solutions were obtained; also recorded: no solids after 24 h; Hydration studies, outcome [4, 6]: Solutions obtained; Disproportionation experiment, outcome [4]: Solutions were obtained; also recorded: no solids after 24 h; Disproportionation experiment, outcome [4, 6]: Solutions obtained; Solubility ([3]; pH 7.4): > 45 mg/mL; Solubility ([3]; pH 8): > 39 mg/mL; Solubility ([3]; pH 8.5): > 39 mg/mL; Post DVS XRPD form [5]: remain unchanged; DVS hygroscopic nature ([5]; 25° C.): hygroscopic; DVS total uptake at 90% RH ([5]; 25° C.): 19.0%; DVS total uptake at 90% RH as equivalents of water ([5]; 25° C.): 7.3 equivalents of water; DVS uptake between 40% RH and 90% RH ([5]; 25° C.): 17.8%; DVS uptake between 40% RH and 90% RH ([5]; 25° C., listed as N-(hydroxyethyl)pyrrolidine Pattern 2): 17.8% uptake between 40 &; Loss in purity, one week stability ([1]; 40° C./75% RH): No loss in purity; Loss in purity, one week stability ([1]; 40° C./75% RH, listed as N-(hydroxyethyl)pyrrolidine Pattern 2): No loss in purity at ambient; Decrease in purity, one week stability ([1]; 80° C.): 0.9 % Area; XRPD form after one week stability ([1]; 80° C.): some minor changes; Decrease in purity, one week stability [1, 7]: & 40° C./75% RH. 0.9% Area; XRPD form after one week stability [1, 7]: minor changes at 80 °C; XRPD form after one week stability ([1]; all conditions tested): Form V remained; also recorded: remain unchanged; XRPD form after one week stability ([1]; all conditions tested, listed as N-(hydroxyethyl)pyrrolidine Pattern 2): Remained Pattern 2, some; Loss in purity, one week stability ([1]; ambient light and temperature): No loss in purity; Loss in purity, one week stability ([1]; ambient light and temperature, listed as N-(hydroxyethyl)pyrrolidine Pattern 2): No loss in purity at ambient

Source: US20240247026A1, “SALTS AND CRYSTALLINE FORMS OF (3E) 3-[O-[(PHOSPHONOOXY)METHYL]OXIME]-PREGN-4-ENE-3,20-DIONE AND RELATED USES” (NeuroTrauma Sciences LLC, priority 2021, published 2024)
